From patent US5602101A, “Antithrombotic agents” (priority 1994, dated 1997)

Columns and labels:
factor Xa = biological target: T1, factor Xa (Homo sapiens, UniProt P00742); test: Serine protease inhibition, factor Xa (chromogenic substrate), Kass; assay type: biochemical; settings: substrate N-Benzoyl-Ile-Glu-Gly-Arg-p-nitroanilide
T1 construct: Human factors X, Xa, IXa, XIa, and xIIa are purchased from Enzyme Research Laboratories; purchased Enzyme Research Laboratories, South Bend, Ind
Description: (§1) The assay is carried out by mixing 50 μl buffer (0.03M Tris, 0.15M NaCl, pH 7.4), 25 μl of human thrombin solution (purified human thrombin Enzyme Research Laboratories, South Bend, Ind.) at 8 NIH units/ml and 25 μl of test compound in a solvent (50% aqueous methanol (v:v)). Then 150 μl of an aqueous solution of the chromogenic substrate (at 0.25 mg/ml) are added and the rates of hydrolysis of the substrate are measured by monitoring the reactions at 405 nm for the release of p-nitroaniline. Standard curves are constructed by plotting free thrombin concentration against hydrolysis rate. The hydrolysis rates observed with test compounds are then converted to "free thrombin" values in the respective assays by use of the standard curves. The bound thrombin (bound to test compound) is calculated by subtracting the amount of free thrombin observed in each assay from the known initial amount of thrombin used in the assay. The amount of free inhibitor in each assay is calculated by subtracting the number of moles of bound thrombin from the number of moles of added inhibitor (test compound).
(§2) Kass is calculated for a range of concentrations of test compounds and the mean value is reported in units of liter per mole.
(§3) By substantially following the procedures described above for human thrombin, and using other human blood coagulation system serine proteases, and using fibrinolytic system serine proteases, with the appropriate chromogenic substrate, identified below, selectivity of the compounds of the present invention with respect to the coagulation factor serine proteases and to the fibrinolytic serine proteases are evaluated as well as their substantial lack of interference with human plasma clot fibrinolysis.
(§4) Human factors X, Xa, IXa, XIa, and xIIa are purchased from Enzyme Research Laboratories, South Bend, Ind.; human urokinase from Leo Pharmaceuticals, Denmark; and recombinant activated Protein C (aPC) is prepared at Eli Lilly and Co. substantially according to U.S. Pat. No. 4,981,952 incorporated by reference herein in its entirety. Chromogenic substrates: N-Benzoyl-Ile-Glu-Gly-Arg-p-nitroanilide (for factor Xa); N-Cbz-D-Arg-Gly-Arg-p-nitroanilide (for factor IXa assay as the factor Xa substrate) pyroglutamyl-Pro-Arg-p-nitroanilide (for factor XIa and for aPC); H-D-Pro-Phe-Arg-p-nitroanilide (for factor XIIa); and pyroglutamyl-Gly-Arg-p-nitroanilide (for urokinase); are purchased from KabiVitrum, Stockholm, Sweden, or from Midwest Biotech, Fishers, Indiana. Bovine trypsin is purchased from Worthington Biochemicals, Freehold, N.J., and human plasma kallikrein from Kabi Vitrum, Stockholm, Sweden. N-Benzoyl-Phe-Val-Arg-p-nitroanilide, the substrate for human thrombin and for trypsin, is synthesized according to procedures described above for the compounds of the present invention, known methods of peptide coupling from commercially available reactants, or was purchased from Midwest Biotech, Fishers, Ind. Human plasmin is purchased from Boehringer Mannheim, Indianapolis, Ind.; nt-PA is purchased as single chain activity reference from American Diagnostics, Greenwich, Conn.; modified-t-PA6 (mt-PA6) is prepared at Eli Lilly and Company by procedure known in the art (See, Burck, et al., J. Biol. Chem., 265, […] (1990). Plasmin chromogenic substrate H-D-Val-Leu-Lys-p-nitroanilide and tissue plasminegen activator (t-PA) substrate H-D-Ile-Pro-Arg-p-nitroanilide are purchased from Kabi Vitrum, Stockholm, Sweden.

[1] = biological target: T2, tissue plasminogen activator (t-PA) (Homo sapiens, UniProt P00750); test: Serine protease inhibition, t-PA (chromogenic substrate), Kass; assay type: biochemical; settings: substrate H-D-Ile-Pro-Arg-p-nitroanilide
T2 construct: purchased American Diagnostics, Greenwich, Conn
T2 sequence (P00750 36-562): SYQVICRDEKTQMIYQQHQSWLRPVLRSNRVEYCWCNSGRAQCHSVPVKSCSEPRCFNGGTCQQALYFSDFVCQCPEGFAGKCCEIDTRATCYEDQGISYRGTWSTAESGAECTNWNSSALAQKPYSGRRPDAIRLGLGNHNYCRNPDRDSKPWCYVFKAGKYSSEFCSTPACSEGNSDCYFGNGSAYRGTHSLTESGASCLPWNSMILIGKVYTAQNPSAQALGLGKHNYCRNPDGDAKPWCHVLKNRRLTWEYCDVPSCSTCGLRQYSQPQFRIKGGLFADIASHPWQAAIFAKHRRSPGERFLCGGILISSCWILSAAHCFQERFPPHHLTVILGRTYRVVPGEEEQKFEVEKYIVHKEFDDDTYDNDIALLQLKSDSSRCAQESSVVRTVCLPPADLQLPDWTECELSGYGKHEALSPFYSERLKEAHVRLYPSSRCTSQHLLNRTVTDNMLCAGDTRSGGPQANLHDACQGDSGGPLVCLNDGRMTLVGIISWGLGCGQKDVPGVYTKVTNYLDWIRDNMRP
Description: as §1, §2, §3, §4

Human plasmin = biological target: T3, Human plasmin (Homo sapiens, UniProt P00747); test: Serine protease inhibition, plasmin (chromogenic substrate), Kass; assay type: biochemical; settings: substrate H-D-Val-Leu-Lys-p-nitroanilide
T3 construct: Human plasmin is purchased from Boehringer Mannheim, Indianapolis, Ind; purchased Boehringer Mannheim, Indianapolis, Ind
T3 sequence (P00747 581-810 limits assumed): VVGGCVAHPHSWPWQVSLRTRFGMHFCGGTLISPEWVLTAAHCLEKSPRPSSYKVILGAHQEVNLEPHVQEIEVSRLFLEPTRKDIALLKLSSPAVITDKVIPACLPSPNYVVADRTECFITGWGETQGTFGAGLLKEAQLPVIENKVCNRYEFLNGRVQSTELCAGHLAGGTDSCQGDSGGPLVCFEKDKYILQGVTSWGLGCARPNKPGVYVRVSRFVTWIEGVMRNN
T3 sequence (P00747 97-580 partner limits assumed): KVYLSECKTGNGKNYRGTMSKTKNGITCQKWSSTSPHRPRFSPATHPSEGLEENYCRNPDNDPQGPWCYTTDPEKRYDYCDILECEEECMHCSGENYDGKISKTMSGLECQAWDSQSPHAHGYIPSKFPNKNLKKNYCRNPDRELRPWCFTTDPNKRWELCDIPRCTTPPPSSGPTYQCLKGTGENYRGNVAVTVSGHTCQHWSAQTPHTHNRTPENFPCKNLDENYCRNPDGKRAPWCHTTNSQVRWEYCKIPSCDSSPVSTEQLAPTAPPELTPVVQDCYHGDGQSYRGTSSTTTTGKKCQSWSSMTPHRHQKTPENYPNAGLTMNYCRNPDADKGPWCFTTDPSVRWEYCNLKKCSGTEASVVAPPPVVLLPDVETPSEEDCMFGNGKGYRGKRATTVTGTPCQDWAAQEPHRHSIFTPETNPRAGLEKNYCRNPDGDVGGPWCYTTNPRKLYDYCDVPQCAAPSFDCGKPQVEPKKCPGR
Description: as §1, §2, §3, §4

Bovine trypsin = biological target: T4, Bovine trypsin (Bos taurus, UniProt P00760); test: Serine protease inhibition, trypsin (chromogenic substrate), Kass; assay type: biochemical; settings: substrate N-Benzoyl-Phe-Val-Arg-p-nitroanilide
T4 construct: Bovine trypsin is purchased from Worthington Biochemicals, Freehold, N.J; purchased Worthington Biochemicals, Freehold, N.J
T4 sequence (P00760 24-246): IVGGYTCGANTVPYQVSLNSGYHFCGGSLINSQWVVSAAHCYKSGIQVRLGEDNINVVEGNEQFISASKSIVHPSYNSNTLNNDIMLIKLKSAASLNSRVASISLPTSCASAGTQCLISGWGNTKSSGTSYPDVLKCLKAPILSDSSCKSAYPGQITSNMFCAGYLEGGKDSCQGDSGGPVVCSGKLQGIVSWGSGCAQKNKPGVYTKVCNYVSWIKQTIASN
Description: as §1, §2, §3, §4

human thrombin = biological target: T5, human thrombin (Homo sapiens, UniProt P00734); test: Inhibition of amidase activity of thrombin (chromogenic substrate), Kass; assay type: biochemical; settings: substrate N-benzoyl-Phe-Val-Arg-p-nitroanilide, pH 7.4
T5 construct: purified human thrombin Enzyme Research Laboratories, South Bend, Ind; purchased Enzyme Research Laboratories, South Bend, Ind
Description: as §1
The Kass value is the hypothetical equilibrium constant for the reaction between thrombin and the test compound (I). [drawing 53]
as §2

[2] = Index of bioavailability (plasma TT AUC, p.o. vs i.v.); settings: rats, adjusted for dose
Description: Male Sprague Dawley rats (350-425 gm, Harlan Sprague Dawley Inc., Indianapolis, Ind.) are anesthetized with xylazine (20 mg/kg, s.c.) and ketamine (120 mg/kg, s.c.) and maintained on a heated water blanket (37° C.). The jugular vein(s) is cannulated to allow for infusions.
Plasma thrombin time (TT) and activated partial thromboplastin time (APTT) are measured with a fibrometer. Blood is sampled from a jugular catheter and collected in syringe containing sodium citrate (3.8%, 1 part to 9 parts blood). To measure TT, rat plasma (0.1 ml) is mixed with saline (0.1 ml) and bovine thrombin (0.1 ml, 30 U/ml in TRIS buffer; Parke Davis) at 37° C. For APTT, plasma (0.1 ml) and APTT solution (0.1 ml, Organon Teknika are incubated for 5 minutes (37° C.) and CaCl2 (0.01 ml, 0,025M) is added to start coagulation. Assays are done in duplicate and averaged.
The time course of the effect of the thrombin inhibitor upon TT is determined after i.v bolus administration to anesthetized rats and after oral treatment of fasted conscious rats. Due to limitations of blood volume and the number of points required to determine the time course from time of treatment to the time when the response returns to pretreatment values, two populations of rats are used. Each sample population represents alternating sequential time points. The average TT over the time course is used to calculate area under the curve (AUC). The index of bioavailability is calculated by the formula shown below and is expressed as percent relative activity.
The area under the curve (AUC) of the plasma TT time course is determined and adjusted for the dose. This index of bioavailability is termed "% Relative Activity" and is calculated as [formula]
Compound solutions are prepared fresh daily in normal saline and are injected as a bolus or are infused starting 15 min before and continuing throughout the experimental perturbation which is 15 minutes in the arteriovenous shunt model and 60 minutes in the FeCl3 model of arterial injury and in the spontaneous thrombolysis model. Bolus injection volume is 1 ml/kg for i.v., and 5 ml/kg for p.o. and infusion volume is 3 ml/hr.

Human Plasma [3] = test: Anticoagulation in human plasma, activated partial thromboplastin time (APTT); assay type: biochemical; settings: concentration required to double the APTT
Description: (§5) Dog plasma and rat plasma are obtained from conscious mixed-breed hounds (either sex, Hazelton-LRE, Kalamazoo, Mich., U.S.A.) or from anesthetized male Sprague-Dawley rats (Harlan Sprague-Dawley, Inc., Indianapolis, Ind., U.S.A.) by venipuncture into 3.8 percent citrate. Fibrinogen is prepared from in-date ACD human blood as the fraction I-2 according to previous procedures and specifications. Smith, Biochem. Chem. […] Human fibrinogen is also purchased as 98 percent pure/plasmin free from American Diagnostics, Greenwich, Conn. Coagulation reagents ACTIN, Thromboplastin, and Human plasma are from Baxter Healthcare Corp., Dade Division, Miami, Fla. Bovine thrombin from Parke-Davis (Ann Arbor, Mich.) is used for coagulation assays in plasma. Coagulation assay procedures are as previously described. Smith, et al., Thrombosis Research, 5, 163-174 (1988). A CoAScreener coagulation instrument (American LABor, Inc.) is used for all coagulation assay measurements. The prothrombin time (PT) is measured by adding 0.05 ml saline and 0.05 ml Thromboplastin-C reagent to 0.05 ml test plasma. The activated partial thromboplastin time (APTT) is measured by incubation of 0.05 ml test plasma with 0.05 ml Actin reagent for 120 seconds followed by 0.05 ml CaCl2 (0.02M). […] The compounds of formula I are added to human or animal plasma over a wide range of concentrations to determine prolongation effects on the APTT, PT, and TT assays. Linear extrapolations are performed to estimate the concentrations required to double the clotting time for each assay.

Human Plasma [4] = test: Anticoagulation in human plasma, thrombin time (TT); assay type: biochemical; settings: concentration required to double the thrombin time
Description: as §5

Human Plasma [5] = test: Anticoagulation in human plasma, prothrombin time (PT); assay type: biochemical; settings: concentration required to double the PT
Description: as §5

T1 sequence (P00742 235-488 limits assumed): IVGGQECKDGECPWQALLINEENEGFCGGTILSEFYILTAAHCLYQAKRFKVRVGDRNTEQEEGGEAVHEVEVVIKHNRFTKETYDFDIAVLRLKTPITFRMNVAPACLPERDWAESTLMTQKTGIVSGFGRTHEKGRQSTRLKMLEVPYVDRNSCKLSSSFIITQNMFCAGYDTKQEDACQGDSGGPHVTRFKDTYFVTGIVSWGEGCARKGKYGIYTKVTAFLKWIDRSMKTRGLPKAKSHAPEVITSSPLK
T1 sequence (P00742 41-179 partner limits assumed): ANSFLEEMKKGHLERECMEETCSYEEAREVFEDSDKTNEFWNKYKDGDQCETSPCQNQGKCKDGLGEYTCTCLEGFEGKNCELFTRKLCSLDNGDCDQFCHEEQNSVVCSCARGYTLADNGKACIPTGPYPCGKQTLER

## CCS(=O)(=O)N[C@H](Cc1ccccc1)C(=O)N1CCC[C@H]1C(=O)N[C@H](C=O)CCCNC(=N)N.Cl [Example 8, EtSO2 -D-Phe-Pro-Arg-H-HCl]
Factor Xa
  Enzyme Kass, Xa: 2.6 L/mol × 10^6
[1]
  Enzyme Kass, t-Pa: 2.9 L/mol × 10^6
Human plasmin
  Enzyme Kass, Plasmin: 31 L/mol × 10^6
Bovine trypsin
  Enzyme Kass, Trypsin: 260 L/mol × 10^6
Human thrombin
  Enzyme Kass, Human Thrombin: 450 L/mol × 10^6
[2]
  Index of Bioavailability, % Relative Activity: 31%
Human Plasma [3]
  2 × Clotting time, APTT: 260 ng/mL
Human Plasma [4]
  2 × Clotting time, TT: 9 ng/mL
Human Plasma [5]
  2 × Clotting time, PT: 660 ng/mL

## Cl.N=C(N)NCCC[C@@H](C=O)NC(=O)[C@@H]1CCCN1C(=O)[C@@H](Cc1ccccc1)NC(=O)c1cccnc1 [Example 3, N-Nicotinoyl-D-Phe-Pro-Arg-H.HCl]
Factor Xa
  Enzyme Kass, Xa: 0.080 L/mol × 10^6
[1]
  Enzyme Kass, t-Pa: 0.17 L/mol × 10^6
Human plasmin
  Enzyme Kass, Plasmin: 0.41 L/mol × 10^6
Bovine trypsin
  Enzyme Kass, Trypsin: 12 L/mol × 10^6
Human thrombin
  Enzyme Kass, Human Thrombin: 58 L/mol × 10^6
[2]
  Index of Bioavailability, % Relative Activity: 3%
Human Plasma [3]
  2 × Clotting time, APTT: 1,300 ng/ML
Human Plasma [4]
  2 × Clotting time, TT: 47 ng/mL
Human Plasma [5]
  2 × Clotting time, PT: 1,700 ng/ML

## CCOC(=O)N[C@H](Cc1ccccc1)C(=O)N1CCC[C@H]1C(=O)N[C@H](C=O)CCCNC(=N)N.Cl [Example 33, EtOCO-D-Phe-Pro-Arg-H.HCl]
Factor Xa
  Enzyme Kass, Xa: 2.3 L/mol × 10^6
[1]
  Enzyme Kass, t-Pa: 2.5 L/mol × 10^6
Human plasmin
  Enzyme Kass, Plasmin: 16 L/mol × 10^6
Bovine trypsin
  Enzyme Kass, Trypsin: 240 L/mol × 10^6
Human thrombin
  Enzyme Kass, Human Thrombin: 170 L/mol × 10^6
[2]
  Index of Bioavailability, % Relative Activity: 14%
Human Plasma [3]
  2 × Clotting time, APTT: 390 ng/mL
Human Plasma [4]
  2 × Clotting time, TT: 22 ng/mL
Human Plasma [5]
  2 × Clotting time, PT: 2,000 ng/ML

## Cl.N=C(N)NCCC[C@@H](C=O)NC(=O)[C@@H]1CCCN1C(=O)[C@@H](Cc1ccccc1)NS(=O)(=O)c1ccccc1 [Example 13, PhSO2 -D-Phe-Pro-Arg-H.HCl]
Factor Xa
  Enzyme Kass, Xa: 3.6 L/mol × 10^6
[1]
  Enzyme Kass, t-Pa: 2.3 L/mol × 10^6
Human plasmin
  Enzyme Kass, Plasmin: 19 L/mol × 10^6
Bovine trypsin
  Enzyme Kass, Trypsin: 180 L/mol × 10^6
Human thrombin
  Enzyme Kass, Human Thrombin: 270 L/mol × 10^6
[2]
  Index of Bioavailability, % Relative Activity: 3%
Human Plasma [3]
  2 × Clotting time, APTT: 450 ng/mL
Human Plasma [4]
  2 × Clotting time, TT: 14 ng/mL
Human Plasma [5]
  2 × Clotting time, PT: 930 ng/mL

## Cl.Cn1c(C(=O)NC(Cc2ccccc2)C(=O)N2CCCC2C(=O)NC(C=O)CCCN=C(N)N)cc2ccccc21 [Example 1, NMI-D-Phe-Pro-Arg-H.HCl]
Factor Xa
  Enzyme Kass, Xa: 0.51 L/mol × 10^6
[1]
  Enzyme Kass, t-Pa: 31 L/mol × 10^6
Human plasmin
  Enzyme Kass, Plasmin: 7.9 L/mol × 10^6
Bovine trypsin
  Enzyme Kass, Trypsin: 120 L/mol × 10^6
Human thrombin
  Enzyme Kass, Human Thrombin: 850 L/mol × 10^6
[2]
  Index of Bioavailability, % Relative Activity: 2%
Human Plasma [3]
  2 × Clotting time, APTT: 440 ng/mL
Human Plasma [4]
  2 × Clotting time, TT: 43 ng/mL
Human Plasma [5]
  2 × Clotting time, PT: 870 ng/mL

## Cl.N=C(N)NCCC[C@@H](C=O)NC(=O)[C@@H]1CCCN1C(=O)[C@@H](Cc1ccccc1)NS(=O)(=O)c1ccc(F)cc1F [Example 14, 2,4-F-PhSO2 -D-Phe-Pro-Arg-H-HCl]
Factor Xa
  Enzyme Kass, Xa: 11 L/mol × 10^6
[1]
  Enzyme Kass, t-Pa: 2.4 L/mol × 10^6
Human plasmin
  Enzyme Kass, Plasmin: 25 L/mol × 10^6
Bovine trypsin
  Enzyme Kass, Trypsin: 160 L/mol × 10^6
Human thrombin
  Enzyme Kass, Human Thrombin: 230 L/mol × 10^6
[2]
  Index of Bioavailability, % Relative Activity: 6%
Human Plasma [3]
  2 × Clotting time, APTT: 350 ng/mL
Human Plasma [4]
  2 × Clotting time, TT: 21 ng/mL
Human Plasma [5]
  2 × Clotting time, PT: 940 ng/mL

## CS(=O)(=O)N[C@H](Cc1ccccc1)C(=O)N1CCC[C@H]1C(=O)N[C@H](C=O)CCCNC(=N)N.Cl [Example 7, MeSO2 -D-Phe-Pro-Arg-H.HCl]
Factor Xa
  Enzyme Kass, Xa: 2.4 L/mol × 10^6
[1]
  Enzyme Kass, t-Pa: 13 L/mol × 10^6
Human plasmin
  Enzyme Kass, Plasmin: 17 L/mol × 10^6
Bovine trypsin
  Enzyme Kass, Trypsin: 220 L/mol × 10^6
Human thrombin
  Enzyme Kass, Human Thrombin: 690 L/mol × 10^6
[2]
  Index of Bioavailability, % Relative Activity: 27%
Human Plasma [3]
  2 × Clotting time, APTT: 330 ng/mL
Human Plasma [4]
  2 × Clotting time, TT: 21 ng/mL
Human Plasma [5]
  2 × Clotting time, PT: 530 ng/mL

## Cl.N=C(N)NCCC[C@@H](C=O)NC(=O)[C@@H]1CCCN1C(=O)[C@@H](Cc1ccccc1)NS(=O)(=O)c1ccc(C(=O)O)cc1 [Example 18, 4-(HO2 C)-C6 H4 SO2 -D-Phe-Pro-Arg-H.HCl]
Factor Xa
  Enzyme Kass, Xa: 2.0 L/mol × 10^6
[1]
  Enzyme Kass, t-Pa: 1.1 L/mol × 10^6
Human plasmin
  Enzyme Kass, Plasmin: 7.0 L/mol × 10^6
Bovine trypsin
  Enzyme Kass, Trypsin: 43 L/mol × 10^6
Human thrombin
  Enzyme Kass, Human Thrombin: 70 L/mol × 10^6
[2]
  Index of Bioavailability, % Relative Activity: 13%
Human Plasma [3]
  2 × Clotting time, APTT: 1,200 ng/ML
Human Plasma [4]
  2 × Clotting time, TT: 120 ng/mL
Human Plasma [5]
  2 × Clotting time, PT: 3,000 ng/ML

## CCCS(=O)(=O)N[C@H](Cc1ccccc1)C(=O)N1CCC[C@H]1C(=O)N[C@H](C=O)CCCNC(=N)N.Cl [Example 9, n-Pr-SO2 -D-Phe-Pro-Arg-H.HCl]
Factor Xa
  Enzyme Kass, Xa: 13 L/mol × 10^6
[1]
  Enzyme Kass, t-Pa: 2.8 L/mol × 10^6
Human plasmin
  Enzyme Kass, Plasmin: 29 L/mol × 10^6
Bovine trypsin
  Enzyme Kass, Trypsin: 480 L/mol × 10^6
Human thrombin
  Enzyme Kass, Human Thrombin: 1,700 L/mol × 10^6
[2]
  Index of Bioavailability, % Relative Activity: 14%
Human Plasma [3]
  2 × Clotting time, APTT: 220 ng/mL
Human Plasma [4]
  2 × Clotting time, TT: 6 ng/mL
Human Plasma [5]
  2 × Clotting time, PT: 510 ng/mL
